Reference: ChEMBL document CHEMBL4184159, “Delphinidin inhibits BDNF-induced migration and invasion in SKOV3 ovarian cancer cells” (2017)
The source made the active and inactive calls. The calls are words filed in the database; no cut-off is given here.

Columns and labels:
SK-OV-3 [1] = experiment: Inhibition of BDNF-induced invasion in human SKOV3 cells after 24 hrs in by matrigel invasion assay; assay type: functional, cell-based
[2] = molecular target: RAC-alpha serine/threonine-protein kinase (Homo sapiens) (UniProt P31749); experiment: Inhibition of BDNF-induced AKT phosphorylation in human SKOV3 cells after 24 hrs by Western blot analysis; assay type: cell-based
Sequence of RAC-alpha serine/threonine-protein kinase (Homo sapiens) (P31749 whole entry): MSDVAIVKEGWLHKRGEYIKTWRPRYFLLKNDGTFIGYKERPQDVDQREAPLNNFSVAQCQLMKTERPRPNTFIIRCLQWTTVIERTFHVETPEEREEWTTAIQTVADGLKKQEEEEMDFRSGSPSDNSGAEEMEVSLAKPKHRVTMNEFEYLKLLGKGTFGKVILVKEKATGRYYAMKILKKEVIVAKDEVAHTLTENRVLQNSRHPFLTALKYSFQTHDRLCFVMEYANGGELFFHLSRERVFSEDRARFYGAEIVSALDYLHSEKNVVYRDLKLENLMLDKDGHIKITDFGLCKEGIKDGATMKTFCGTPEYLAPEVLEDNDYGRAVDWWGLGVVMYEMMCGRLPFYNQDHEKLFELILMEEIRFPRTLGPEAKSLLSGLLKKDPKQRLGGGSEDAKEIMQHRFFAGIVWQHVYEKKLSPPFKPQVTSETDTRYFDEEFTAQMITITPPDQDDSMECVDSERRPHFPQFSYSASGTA

SK-OV-3 [3] = experiment: Antiproliferative activity against human SKOV3 cells at 50 uM after 24 hrs by CCK-8 assay; assay type: functional
SK-OV-3 [4] = experiment: Antiproliferative activity against human SKOV3 cells at 75 uM after 24 hrs by CCK-8 assay; assay type: functional
SK-OV-3 [5] = experiment: Antiproliferative activity against human SKOV3 cells at 5 uM after 24 hrs by CCK-8 assay; assay type: functional
SK-OV-3 [6] = experiment: Antiproliferative activity against human SKOV3 cells at 100 uM after 24 hrs by CCK-8 assay; assay type: functional, cell-based
SK-OV-3 [7] = experiment: Antiproliferative activity against human SKOV3 cells at 10 uM after 24 hrs by CCK-8 assay; assay type: functional
Homo sapiens = species on record: Homo sapiens; experiment: Inhibition of BDNF-induced NFkappaB nuclear translocation in human SKOV3 cells at 50 to 75 uM after 24 hrs by Western blot analysis; assay type: cell-based
SK-OV-3 [8] = experiment: Antiproliferative activity against human SKOV3 cells at 200 uM after 24 hrs by CCK-8 assay; assay type: functional, cell-based
SK-OV-3 [9] = experiment: Downregulation of BDNF-induced MMP9 mRNA expression in human SKOV3 cells after 24 hrs by qRT-PCR analysis; assay type: functional, cell-based
SK-OV-3 [10] = experiment: Downregulation of BDNF-induced MMP2 mRNA expression in human SKOV3 cells after 24 hrs by qRT-PCR analysis; assay type: functional, cell-based
SK-OV-3 [11] = experiment: Antimigratory activity against human SKOV3 cells assessed as inhibition of BDNF-induced cell migration after 24 hrs by scratch wound healing assay; assay type: functional, cell-based
SK-OV-3 [12] = experiment: Antimigratory activity against human SKOV3 cells assessed as inhibition of BDNF-induced cell migration at 20 uM after 24 hrs by scratch wound healing assay; assay type: functional, cell-based
SK-OV-3 [13] = experiment: Inhibition of BDNF-induced invasion in human SKOV3 cells at 20 uM after 24 hrs in by matrigel invasion assay; assay type: functional, cell-based

| inhibition [2] | Structure (SMILES) | inhibition (SK-OV-3 [1]) | Activity (SK-OV-3 [3]) [%] | Activity (SK-OV-3 [4]) [%] | Activity (SK-OV-3 [5]) [%] | Activity (SK-OV-3 [6]) | Activity (SK-OV-3 [7]) [%] | inhibition (Homo sapiens) | Activity (SK-OV-3 [8]) | Activity (SK-OV-3 [9]) | Activity (SK-OV-3 [10]) | Activity (SK-OV-3 [11]) | inhibition (SK-OV-3 [12]) | inhibition (SK-OV-3 [13]) |
| --- | --- | --- | --- | --- | --- | --- | --- | --- | --- | --- | --- | --- | --- | --- |
| Dose-dependent effect | Oc1cc(O)c2cc(O)c(-c3cc(O)c(O)c(O)c3)[o+]c2c1.[Cl-] [DELPHINIDIN CHLORIDE] | Dose-dependent effect | >98 | >98 | >98 | Active | >98 | Active | Active | Dose-dependent effect | Dose-dependent effect | Dose-dependent effect |  |  |
| Dose-dependent effect | O=c1cc(N2CCOCC2)oc2c(-c3ccccc3)cccc12 |  |  |  |  |  |  |  |  |  |  |  | Active | Active |
